Measurements from patent publication US8247211B2, “Glycopeptide antibiotics” (American Cyanamid Company, priority 2001, dated 2012).
Converted amounts (≈) assume the structure as drawn.

What was measured:
[1] = tested on: Staphylococcus aureus-SMITH (GC 4543); experiment: Acute lethal infection in mice (ED50); format: in vivo; settings: female CD-1 mice, intraperitoneal challenge, intravenous dose 30 min. after infection, 7 day survival ratios
How it was run: (§1)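 Median effective dose is calculated from 7-day survival ratios pooled across three separate tests. Mice (female CD-1) receive an intraperitoneal bacterial challenge in broth or hog gastric mucin, then intravenous drug 30 min later, five animals per dose level.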

[2] = tested on: Enterococcus faecalis (GC 6189), vancomycin resistant strain; experiment: Acute lethal infection in mice (ED50); format: in vivo; settings: female CD-1 mice, intraperitoneal challenge, intravenous dose 30 min. after infection, 7 day survival ratios
How it was run: as §1

[3] = format: in vivo; settings: mice, 20 mg/kg intravenously daily for 9 days, serum on day 10
Procedure: 20-day-old CD-1 mice were divided into a vehicle control group (5 mice) and a treatment group (5 mice). Samples of glycopeptide antibiotics were administered at 20 mg/kg intravenously daily for 9 days. Animals were necropsied on day 10 Sera were analyzed for BUN (blood urea nitrogen), creatinine, AST (aspartic aminotransferase), and ALT (alanine aminotransferase) by routine, standard, automated methods using an Hitachi 747 chemistry analyzer.

Streptococcus sp. = experiment: In vitro antibacterial evaluation: minimum inhibitory concentration (MIC), broth dilution method; format: cell-based; settings: broth dilution, 5×10^5 CFU/mL, 18 hours at 35° C.
How it was run: (§2)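 Susceptibility determined by NCCLS-recommended broth dilution (M7-A2), Muller-Hinton II […]. Concentration span 64-0.06 μg/mL, inoculum 5×10^5 CFU/mL. Isolates include strains resistant to methicillin, penicillin and/or vancomycin.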

Staphylococcus sp. = experiment: as above; format: cell-based; settings: for MIC Staphylococcus aureus (ATCC 29213): strain ATCC 29213; for MIC Staphylococcus aureus (GC 1131): strain GC 1131; for MIC Staphylococcus aureus (GC 3051): strain GC 3051; for MIC Staphylococcus aureus (GC 3053): strain GC 3053; for MIC Staphylococcus aureus (GC 4541): strain GC 4541; for MIC Staphylococcus aureus (GC 4542): strain GC 4542; for MIC Staphylococcus aureus (GC 4544): strain GC 4544; for MIC Staphylococcus aureus (GC 4545): strain GC 4545
How it was run: as §2

Escherichia coli = experiment: as above; format: cell-based; settings: 5×10^5 CFU/mL, 18 hours at 35° C.
How it was run: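 First, organisms are seeded at 5×10^5 CFU/mL into Muller-Hinton II […]. Next, antibiotic is applied across 64-0.06 μg/mL by broth dilution (NCCLS M7-A2). Finally, the lowest inhibitory concentration is recorded as MIC.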

Enterococcus sp. = experiment: as above; format: cell-based; settings: broth dilution, 5×10^5 CFU/mL, 18 hours at 35° C.
How it was run: as §2

[4] = Anatomic pathology (heart and kidney histopathology) in mice; format: in vivo, CD-1 mice; settings: 20 mg/kg intravenously daily for 9 days, microscopic histopathology on day 10
How it was run: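 Juvenile CD-1 mice (20 days old; 5 vehicle, 5 treated) received glycopeptide antibiotic 20 mg/kg i.v. daily for 9 days. Necropsied tissues formalin-fixed, paraffin-embedded, H&E stained and examined microscopically; findings graded slight to severe versus controls.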

[5] = strain GC 4543, broth dilution, 18 hours at 35° C.
[6] = strain GC 4546, broth dilution, 18 hours at 35° C.
[7] = strain GC 4547, broth dilution, 18 hours at 35° C.
[8] = strain GC 4548, broth dilution, 18 hours at 35° C.
[9] = strain GC 4549, broth dilution, 18 hours at 35° C.
[10] = strain GC 4551, broth dilution, 18 hours at 35° C.
[11] = strain GC 6257, broth dilution, 18 hours at 35° C.
[12] = broth dilution, 5×10^5 CFU/mL, 18 hours at 35° C.
[13] = broth dilution, 18 hours at 35° C.

## CC(c1ccccc1)C1NC(=O)CNC(=O)C(CO)NC(=O)C(C(O)C2CNC(=N)N2C2OC(CO)C(O)C(O)C2O)NC(=O)C(C(O)C2CNC(=N)N2)NC(=O)C(Cc2ccc(OC3OC(CO)C(OC4OC5COC(Cc6ccccc6)OC5C(O)C4O)C(O)C3O)cc2)NC1=O (stereo not drawn) [Example 102, Cyclo[glycyl-β-methylphenylalanyl-O-[4-O-(4,6-O-phenethylidenehexopyranosyl)-hexopyranosyl]tyrosyl-3-(2-iminoimidazoliclin-4-yl)seryl-3-(3-hexopyranosyl-2-iminoimidazolidin-4-yl)serylseryl]]
[1]
  median effective dose (ED50), Staphylococcus aureus-SMITH (GC 4543): 0.23-0.43
[2]
  median effective dose (ED50), Enterococcus faecalis (GC 6189): 1.04 mg/kg
[3]
  Clinical Chemistry (Day 10) % of Control, AST: +340%
  Clinical Chemistry (Day 10) % of Control, Creatinine: +100%
Streptococcus sp.
  MIC Streptococcus pneumoniae (GC 1894): <0.06 µg/mL
  MIC Streptococcus pneumonine (ATCC 6301): <0.06 µg/mL
Staphylococcus sp.
  MIC Staphylococcus aureus (ATCC 29213): 1 to 2 µg/mL
  MIC Staphylococcus aureus (GC 1131): 2 µg/mL (≈ 1.43 µM)
  MIC Staphylococcus aureus (GC 3051): 1 µg/mL (≈ 0.716 µM)
  MIC Staphylococcus aureus (GC 3053): 1 to 2 µg/mL
  MIC Staphylococcus aureus (GC 4541): 1 to 2 µg/mL
  MIC Staphylococcus aureus (GC 4542): 0.5 to 1 µg/mL
  MIC Staphylococcus aureus (GC 4544): 1 to 2 µg/mL
  MIC Staphylococcus aureus (GC 4545): 0.5 to 1 µg/mL
Staphylococcus sp.; strain GC 4543, 18 hours at 35° C.
  MIC Staphylococcus aureus-SMITH (GC 4543): 0.5 to 1 µg/mL
Staphylococcus sp.; [5]
  MIC Staphylococcus aureus-SMITH (GC 4543): 0.5 to 1 µg/mL
Staphylococcus sp.; strain GC 4546
  MIC Staphylococcus haemolyticus (GC 4546): 0.5 to 1 µg/mL
Staphylococcus sp.; [6]
  MIC Staphylococcus haemolyticus (GC 4546): 0.5 to 1 µg/mL
Staphylococcus sp.; strain GC 4547
  MIC Coagulase Negative Staphylococcus (GC 4547): 1 µg/mL (≈ 0.716 µM)
Staphylococcus sp.; [7]
  MIC Coagulase Negative Staphylococcus (GC 4547): 1 µg/mL (≈ 0.716 µM)
Staphylococcus sp.; strain GC 4548
  MIC Coagulase Negative Staphylococcus (GC 4548): 0.5 to 1 µg/mL
Staphylococcus sp.; [8]
  MIC Coagulase Negative Staphylococcus (GC 4548): 0.5 to 1 µg/mL
Staphylococcus sp.; strain GC 4549
  MIC Coagulase Negative Staphylococcus (GC 4549): 0.5 to 1 µg/mL
Staphylococcus sp.; [9]
  MIC Coagulase Negative Staphylococcus (GC 4549): 0.5 to 1 µg/mL
Staphylococcus sp.; strain GC 4551
  MIC Coagulase Negative Staphylococcus (GC 4551): 1 to 2 µg/mL
Staphylococcus sp.; [10]
  MIC Coagulase Negative Staphylococcus (GC 4551): 1 to 2 µg/mL
Staphylococcus sp.; strain GC 6257
  MIC Coagulase Negative Staphylococcus (GC 6257): 0.5 µg/mL (≈ 0.358 µM)
Staphylococcus sp.; [11]
  MIC Coagulase Negative Staphylococcus (GC 6257): 0.5 µg/mL (≈ 0.358 µM)
Escherichia coli
  MIC Escherichia coli (GC 4560): 0.5 to 1 µg/mL
Enterococcus sp.
  MIC Enterococccus avium (GC 4558): 2 to 4 µg/mL
  MIC Enterococccus faecalis (ATCC 29212): 2 to 4 µg/mL
  MIC Enterococccus faecalis (GC 2691): 2 to 4 µg/mL
  MIC Enterococccus faecalis (GC 3059): 2 to 4 µg/mL
  MIC Enterococccus faecalis (GC 4552): 2 to 4 µg/mL
  MIC Enterococccus faecalis (GC 4553): 2 to 4 µg/mL
  MIC Enterococccus faecalis (GC 4554): 2 to 4 µg/mL
  MIC Enterococccus faecalis (GC 6189): 2 to 4 µg/mL
  MIC Enterococccus faecium (GC 2243): 2 to 4 µg/mL
  MIC Enterococccus faecium (GC 4556): 2 to 4 µg/mL
  MIC Enterococccus faecium (GC 4557): 1 to 2 µg/mL
  MIC Enterococcus faecalis (GC 2242): 2 to 4 µg/mL
[4]
  Anatomical Pathology (Day 10), Heart: +++
  Anatomical Pathology (Day 10), Kidney: +++

## Cc1cccc(C2OCC3OC(OC4C(CO)OC(Oc5ccc(CC6NC(=O)C(C(C)c7ccccc7)NC(=O)CNC(=O)C(CO)NC(=O)C(C(O)C7CNC(=N)N7C7OC(CO)C(O)C(O)C7O)NC(=O)C(C(O)C7CNC(=N)N7)NC6=O)cc5)C(O)C4O)C(O)C(O)C3O2)c1 (stereo not drawn) [Example 135, Cyclo[glycyl-β-methylphenylalanyl-O-[4-O-[4,6-O-(3-methylbenzylidene)hexopyranosyl]-hexopyranosyl]tyrosyl-3-(2-iminoimidazolidin-4-yl)seryl-3-(3-hexopyranosyl-2-iminoimidazolidin-4-yl)serylseryl]]
[1]
  median effective dose (ED50), Staphylococcus aureus-SMITH (GC 4543): 0.07 mg/kg
[2]
  median effective dose (ED50), Enterococcus faecalis (GC 6189): 0.26 mg/kg
Streptococcus sp.
  MIC Streptococcus agalactiae (GC 4564): 0.25 µg/mL (≈ 0.179 µM)
  MIC Streptococcus pneumoniae (GC 1894): <0.06 µg/mL
  MIC Streptococcus pneumoniae (GC 4565): <0.06 µg/mL
  MIC Streptococcus pneumonine (ATCC 6301): <0.06 µg/mL
  MIC Streptococcus pyogenes (GC 4563): 0.25 µg/mL (≈ 0.179 µM)
Staphylococcus sp.; [12]
  MIC Coagulase Negative Staphylococcus (GC 4547): 1 µg/mL (≈ 0.716 µM)
  MIC Coagulase Negative Staphylococcus (GC 4548): 0.5 µg/mL (≈ 0.358 µM)
  MIC Coagulase Negative Staphylococcus (GC 4549): 0.5 µg/mL (≈ 0.358 µM)
  MIC Coagulase Negative Staphylococcus (GC 4551): 1 µg/mL (≈ 0.716 µM)
  MIC Coagulase Negative Staphylococcus (GC 6257): 0.5 µg/mL (≈ 0.358 µM)
  MIC Staphylococcus aureus-SMITH (GC 4543): 1 µg/mL (≈ 0.716 µM)
  MIC Staphylococcus haemolyticus (GC 4546): 0.5 µg/mL (≈ 0.358 µM)
Staphylococcus sp.
  MIC Staphylococcus aureus (ATCC 29213): 1 µg/mL (≈ 0.716 µM)
  MIC Staphylococcus aureus (GC 1131): 1 µg/mL (≈ 0.716 µM)
  MIC Staphylococcus aureus (GC 3051): 1 µg/mL (≈ 0.716 µM)
  MIC Staphylococcus aureus (GC 3053): 1 µg/mL (≈ 0.716 µM)
  MIC Staphylococcus aureus (GC 4541): 1 µg/mL (≈ 0.716 µM)
  MIC Staphylococcus aureus (GC 4542): 1 µg/mL (≈ 0.716 µM)
  MIC Staphylococcus aureus (GC 4544): 2 µg/mL (≈ 1.43 µM)
  MIC Staphylococcus aureus (GC 4545): 1 µg/mL (≈ 0.716 µM)
Staphylococcus sp.; [13]
  MIC Staphylococcus aureus (ATCC 29213): 1 µg/mL (≈ 0.716 µM)
  MIC Staphylococcus aureus (GC 1131): 1 µg/mL (≈ 0.716 µM)
  MIC Staphylococcus aureus (GC 3051): 1 µg/mL (≈ 0.716 µM)
  MIC Staphylococcus aureus (GC 3053): 1 µg/mL (≈ 0.716 µM)
  MIC Staphylococcus aureus (GC 4541): 1 µg/mL (≈ 0.716 µM)
  MIC Staphylococcus aureus (GC 4542): 1 µg/mL (≈ 0.716 µM)
  MIC Staphylococcus aureus (GC 4544): 2 µg/mL (≈ 1.43 µM)
  MIC Staphylococcus aureus (GC 4545): 1 µg/mL (≈ 0.716 µM)
Staphylococcus sp.; [5]
  MIC Staphylococcus aureus-SMITH (GC 4543): 1 µg/mL (≈ 0.716 µM)
Staphylococcus sp.; [6]
  MIC Staphylococcus haemolyticus (GC 4546): 0.5 µg/mL (≈ 0.358 µM)
Staphylococcus sp.; [7]
  MIC Coagulase Negative Staphylococcus (GC 4547): 1 µg/mL (≈ 0.716 µM)
Staphylococcus sp.; [8]
  MIC Coagulase Negative Staphylococcus (GC 4548): 0.5 µg/mL (≈ 0.358 µM)
Staphylococcus sp.; [9]
  MIC Coagulase Negative Staphylococcus (GC 4549): 0.5 µg/mL (≈ 0.358 µM)
Staphylococcus sp.; [10]
  MIC Coagulase Negative Staphylococcus (GC 4551): 1 µg/mL (≈ 0.716 µM)
Staphylococcus sp.; [11]
  MIC Coagulase Negative Staphylococcus (GC 6257): 0.5 µg/mL (≈ 0.358 µM)
Escherichia coli
  MIC Escherichia coli (ATCC 25922): 32 µg/mL (≈ 22.9 µM)
  MIC Escherichia coli (GC 4559): 32 µg/mL (≈ 22.9 µM)
  MIC Escherichia coli (GC 4560): 0.5 µg/mL (≈ 0.358 µM)
Enterococcus sp.
  MIC Enterococccus avium (GC 4558): 2 µg/mL (≈ 1.43 µM)
  MIC Enterococccus faecalis (ATCC 29212): 2 µg/mL (≈ 1.43 µM)
  MIC Enterococccus faecalis (GC 2691): 2 µg/mL (≈ 1.43 µM)
  MIC Enterococccus faecalis (GC 3059): 2 µg/mL (≈ 1.43 µM)
  MIC Enterococccus faecalis (GC 4552): 2 µg/mL (≈ 1.43 µM)
  MIC Enterococccus faecalis (GC 4553): 2 µg/mL (≈ 1.43 µM)
  MIC Enterococccus faecalis (GC 4554): 2 µg/mL (≈ 1.43 µM)
  MIC Enterococccus faecalis (GC 6189): 2 µg/mL (≈ 1.43 µM)
  MIC Enterococccus faecium (GC 2243): 2 µg/mL (≈ 1.43 µM)
  MIC Enterococccus faecium (GC 4556): 2 µg/mL (≈ 1.43 µM)
  MIC Enterococccus faecium (GC 4557): 2 µg/mL (≈ 1.43 µM)
  MIC Enterococcus faecalis (GC 2242): 2 µg/mL (≈ 1.43 µM)
